# What was measured:
# [1] = target: T1, human cloned 5-HT1A receptors (Homo sapiens, UniProt P08908); assay: [35S]GTPγS binding, membranes of HeLa cells transfected with human cloned 5-HT1A receptors; type: biochemical; conditions: 5-HT maximal stimulation taken as 100%
# T1 construct: expressed in transfected cells
# T1 sequence (P08908 1-422): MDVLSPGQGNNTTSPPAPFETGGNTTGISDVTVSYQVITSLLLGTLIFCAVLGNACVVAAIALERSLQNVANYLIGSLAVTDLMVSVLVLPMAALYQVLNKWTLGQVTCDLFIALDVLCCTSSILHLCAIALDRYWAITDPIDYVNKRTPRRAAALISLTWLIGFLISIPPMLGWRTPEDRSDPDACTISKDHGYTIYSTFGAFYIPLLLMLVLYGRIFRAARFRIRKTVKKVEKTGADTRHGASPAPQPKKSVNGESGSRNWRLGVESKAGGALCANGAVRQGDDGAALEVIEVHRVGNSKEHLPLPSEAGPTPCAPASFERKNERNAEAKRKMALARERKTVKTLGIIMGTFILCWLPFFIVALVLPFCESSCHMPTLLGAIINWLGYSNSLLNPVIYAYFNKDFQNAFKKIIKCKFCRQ
# Experimental: A genomic clone coding for the human 5HT1A-serotonergic receptor was stably transfected in a human cell line (HeLa). HeLa cells were grown as monolayers in Dulbecco's modified Eagle medium (DMEM), containing 10% fetal bovine serum, gentamycin (0.1 mg/ml) and 5% carbon dioxide, at 37° C. The cells were detached from the growth flask at 95% confluence by a cell scraper and were lysed in cold 5 mM Tris and 5 mM EDTA buffer (pH 7.4). The homogenates were centrifuged at 40000×g×20 minutes and the pellets were resuspended in a small volume of cold 5 mM Tris and 5 mM EDTA buffer (pH 7.4) and immediately frozen and stored at −70° C. until use.
# [^35S]GTPγS binding: on the experimental day, cell membranes from HeLa cells transfected with human cloned 5-HT1A receptors were resuspended in buffer pH 7.4 containing 20 mM HEPES, 3 mM MgCl2 and 120 mM NaCl (Stanton, J. A.; Beer, M. S. Eur. J. Pharmacol. 320, 267–275, 1997). The membranes were incubated with 10 μM GDP and decreasing concentrations of test drugs (from 100 μM to 0.1 nM) or decreasing concentrations of 5-HT (from 100 μM to 0.1 nM, reference curve) for 20 min at 30° C. in a final volume of about 0.25 ml. [^35S]GTPγS ([…] in 10 μl) was added to samples and incubated for a further 30 min at 30° C. Non-specific binding was determined in the presence of 10 μM GTPγS. The incubation was stopped by addition of ice-cold HEPES buffer and rapid filtration on Unifilter GF/C filters, using a Filtermate cell harvester (Packard). The filters were washed four times with total 1.2 ml of same buffer. Radioactivity was counted by liquid scintillation spectrometry with efficiency >90% (TopCount Packard). Stimulation of [^35S]GTPγS binding induced by the compounds tested was espressed as % increase in binding above basal value, being the maximal stimulation observed with 5-HT taken as 100%. The concentration-response curve of the agonistic activity was analyzed by non linear fitting program (De Lean et al., Am. J. Physiol. 235, E97-E102, 1978).
# A stimulation of [^35S]GTPγS binding represented the functional correlate of the binding of an agonist compound at the 5-HT1A receptors. Stimulation induced by the endogenous ligand 5-HT was considered the maximal stimulation attainable.
# [2] = system: rhythmic bladder-voiding contractions in anaesthetised rats; assay: Rhythmic bladder-voiding contractions induced by bladder filling in anaesthetised rats; type: in vivo, rat; conditions: for ED50: Rattus norvegicus, read-out: ED50 (frequency) (extrapolated dose inducing a reduction of the number of contractions > 30% in 50% of treated rats); for ED50 / ED10 min (extrapolated dose inducing 10 minutes of disappearance of the contractions): intravenous administration, anaesthetised rats; for time of disappearance of bladder contractions: after administration of 0.3 mg/kg
# Experimental: Female Sprague-Dawley rats weighing 225–275 g (Crl: CD® (SD) IGS BR, Charles River Italia) were used. The animals were housed with free access to food and water and maintained on a forced 12-hour alternating light-dark cycle at 22–24° C. for at least one week, except during the experiment. The activity on rhythmic bladder voiding contractions was evaluated according to the method of Dray (Dray J., Pharmacol. Methods, 13:157, 1985), with some modifications as in Guarneri (Guarneri, Pharmacol. Res. 27:173, 1993). Briefly, the rats were anaesthetised by subcutaneous injection of 1.25 g/kg (5 ml/kg) urethane, after which the urinary bladder was catheterised via the urethra using PE 50 polyethylene tubing filled with physiological saline. The catheter was tied in place with a ligature around the external urethral orifice and was connected to conventional pressure transducers (Statham P23 ID/P23 XL). […] The bladder was then filled via the recording catheter by incremental volumes of warm (37° C.) saline until reflex bladder-voiding contractions occurred (usually 0.81.5 ml). For intravenous injection of bioactive compounds, PE 50 polyethylene tubing filled with physiological saline was inserted into the jugular vein.
# From the cystometrogram, the number of contractions recorded 15 minutes before (basal values) and after treatment, as well as the mean amplitude of these contractions (mean height of the peaks in mmHg), was evaluated.
# Since most compounds produced an effect that was relatively rapid in onset and led to a complete cessation of bladder contractions, bioactivity was conveniently estimated by measuring the duration of bladder quiescence (i.e., the length of the time during which no contractions occurred). The number of tested animals showing a reduction in the number of contractions higher than 30% of that observed in the basal period was recorded too.
# The extrapolated doses which induced a reduction in the number of contractions greater than 30% in 50% of the treated rats (ED50) were evaluated by the method of Bliss (Bliss C. I., Quart J. Pharm. Pharmacol. 11, 192–216, 1938).
SMILES,Functional effect ([35S]GTPγS binding) [1],ED50 [2] [mg/kg],ED10 min (extrapolated dose inducing 10 minutes of disappearance of the contractions) [2] [mg/kg],time of disappearance of bladder contractions [2] [min],"extrapolated dose inducing 10 minutes of disappearance of the contractions, fold lower than Ex. 5 ([2]; compared with Ex. 5)"
"COc1ccccc1N1CCN(CC[C@@H](c2ccccc2F)[C@H](O)C2CCCCC2)CC1 (racemic) [Ex. 1, 1-[(SR-RS)-4-cyclohexyl-4-hydroxy-3-(2-fluorophenyl)-butyl]-4-(2-methoxyphenyl)-piperazine]",Neutral antagonist,0.03,0.198,–,–
"COc1ccccc1N1CCN(CC[C@H](c2ccccc2)[C@@H](O)C2CCCCC2)CC1 (racemic) [Ex. 5, 1-[(RS,SR)-4-Cyclohexyl-4-hydroxy-3-phenyl-butyl]-4-(2-methoxyphenyl)-piperazine, reference compound]",Neutral antagonist,0.018,0.066,14,–
"COc1ccccc1N1CCN(CC[C@H](c2ccccc2F)[C@@H](O)C2CCCCC2)CC1 [Ex. 1Y, 1-[(3R,4S)-4-cyclohexyl-4-hydroxy-3-(2-fluorophenyl)-butyl]-4-(2-methoxyphenyl)-piperazine]",Neutral antagonist,0.015,0.023,24,at least 2 fold
"COc1ccccc1N1CCN(CC[C@H](c2ccccc2F)[C@H](O)C2CCCCC2)CC1 [Ex. 2X, 1-[(3R,4R)-4-cyclohexyl-4-hydroxy-3-(2-fluorophenyl)-butyl]-4-(2-methoxyphenyl)-piperazine]",Neutral antagonist,–,–,–,–
